Assay results published in PubChem BioAssay (NCI).
Values joined by “and” are separate entries in the source; they are usually repeats but may differ in a detail not shown here. Equal values may be shown once.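 1) Cells in 96-well plates. 2) Compound, 48 h, 5 concentrations. 3) Linear interpolation between surrounding doses. 4) Unreached endpoint = highest concentration. GI50 marks 50% less growth. TGI: total growth inhibition.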

How the values were obtained:
Assay in all cases: NCI-60 cell line screen, 48 h
[1] = test system: DU-145 prostate
[2] = test system: SR leukemia
[3] = test system: OVCAR-5 ovarian
[4] = test system: MDA-MB-435
[5] = test system: HCT-116 colon
[6] = test system: MDA-MB-231 breast
[7] = test system: SK-OV-3 ovarian
[8] = test system: SF-295 CNS
[9] = test system: LOX IMVI melanoma
[10] = test system: SN12C renal
[11] = test system: MCF7 breast

SMILES	TGI [1] [µM]	TGI [2] [µM]	TGI [3] [µM]	TGI [4] [µM]	TGI [5] [µM]	TGI [6] [µM]	TGI [7] [µM]	TGI [8] [µM]	TGI [9] [µM]	TGI [10] [µM]	TGI [11] [µM]	GI50 [4] [µM]	GI50 [9] [µM]	GI50 [11]	GI50 [5] [µM]	GI50 [8]
Cc1c(/C=N\NC(=S)N2CCN(C(=S)N/N=C\c3c(C)n(C)n(-c4ccccc4)c3=O)CC2)c(=O)n(-c2ccccc2)n1C	> 100	> 100	> 100	64.7	> 100	73.9	> 100	> 100	–	–	–	–	–	–	–	–
COC(=O)C(C#N)=C1c2ccccc2Oc2ccccc21	–	–	> 100	–	–	–	> 100	> 100	> 100	> 100	–	–	–	–	–	–
CC1C(c2cc(C(C)(C)C)c(O)c(C(C)(C)C)c2)c2cc3c(cc2OC1N1CCOCC1)OCO3 (configuration not stated)	> 100	> 100	> 100	68.2	30.7	–	–	32.1	44.7	> 100	> 100	–	–	–	–	–
CCCCCCCCCC[C@@H](O)[C@H]1CC[C@H]([C@H]2CC[C@H]([C@H](O)CCCCCCCCCC[C@@H]3CC(CC(C)=O)C(=O)O3)O2)O1 (some centres not stated)	> 50	–	> 50	> 50	> 37.2	> 50	> 50	> 50	> 50	> 50	> 50	1.86	0.935	1.85 µM	1.32	2.22 µM
CC(C)C(Sc1nc(-c2ccccc2)c(-c2ccccc2)[nH]1)C(=O)NNC(=S)Nc1ccccc1 (configuration not stated)	–	64.2	32.6	–	42.2	–	45.3	35.5	29.3	33.8	–	–	–	–	–	–
COc1ccc2nc(-c3ccc(OCc4ccccc4)cc3)ccc2c1	–	> 100	> 100	–	> 100	–	> 100	> 100	> 100	> 100	–	–	–	–	–	–
Cc1cc2c(cc1C)[n+](=O)c(C(=O)C/C(=N/NC(=O)c1ccccc1O)C(=O)Nc1ccccc1C(C)C)c(C)n2[O-]	–	–	> 100	–	> 100	–	> 100	> 100	> 100	> 100	–	–	–	–	–	–
COC(=O)C1=C(C(=O)OC)C2OC1C1C2C2(C)C(C)=C(C)C1(C)S2=O (configuration not stated)	21.1	–	38.8	19.4	27	> 55.7	> 100	> 84.8	> 100	31.1	> 45.3	–	–	–	–	–
CCCCN(CC)c1nc(C)nc2c1c(C)c(C)n2-c1c(C)cc(C)cc1C	30.2	31.9	28.8	33.3	23.4	29.1	32.9	28	30.4	40.9	–	–	–	–	–	–
COc1cc2c(cc1OCCCCCOc1cc3c(cc1OC)C(=O)N1CCC[C@H]1C(=O)N3)N=C[C@@H]1CCCN1C2=O	> 100	–	–	0.284	> 100	–	–	5.59	0.997	–	0.261	–	–	–	–	–
C=CCN(CC=C)Cn1c(=S)sc2ccccc21	> 100	–	> 100	> 100	> 100	> 100	> 100	> 100	47.1	> 100	> 100	–	–	–	–	–
COc1ccc(-c2c(C#N)c(N)n(C3OC(CO)C(O)C(O)C3O)c(=S)c2C#N)cc1 (configuration not stated)	> 100	> 100	> 100	–	> 100	> 100	> 100	> 100	> 100	> 100	> 100	–	–	> 100 µM and 38.4 µM	–	64.7 µM and 22.3 µM
O=C1O[C@@H](c2ccccc2)C[C@@H]1CN1CCOCC1	–	–	> 100	–	–	–	> 100	> 100	> 100	> 100	–	–	–	–	–	–
Cc1c(S(=O)(=O)c2ccccc2)c(N)n(Cc2ccccc2)c1C	> 100	> 100	> 100	> 100	> 100	> 100	> 100	> 100	–	> 100	> 100	–	–	–	–	–
CCOC(=O)C(OCC1CC=CCC1)Sc1ccccc1 (configuration not stated)	–	> 100	> 100	–	> 100	–	> 100	> 100	> 100	> 100	–	–	–	–	–	–
C=CC1=CSNN1	–	–	> 100	–	> 100	–	> 100	> 100	> 100	> 100	–	–	–	–	–	–
O=C(Cc1nc2ccc(C(=O)c3ccccc3)cc2[nH]c1=O)C(=O)Nc1ccc(Br)cc1	–	–	> 100	> 100	> 100	> 100	> 100	> 100	> 100	> 100	> 100	–	–	–	–	–
O=C1CCCN(c2ccccc2)N1	–	> 100	> 100	–	> 100	–	> 100	> 100	> 100	> 100	–	–	–	–	–	–
CCN(CC)CCn1c2cc3c(cc2c(=O)c2cccnc21)OCCO3	> 10	> 10	–	> 10	> 10	> 10	> 10	> 10	–	> 10	> 10	–	–	–	–	–
Cc1ccc2c(c1C)CC1(Cc3c(ccc4c3CCC4)C1=O)C2=O (configuration not stated)	> 100	–	> 100	> 100	> 100	> 100	> 100	> 100	–	> 100	> 100	–	–	–	–	–
COc1ccc(C2C(Cl)C(=O)N2NC(=O)c2ccc(NC(C)=O)cc2)cc1 (configuration not stated)	–	–	> 100	–	> 100	–	> 100	> 100	> 100	> 100	–	–	–	–	–	–
c1ccc([P+](CCNCCNCC[P+](c2ccccc2)(c2ccccc2)c2ccccc2)(c2ccccc2)c2ccccc2)cc1	> 100	–	> 100	> 100	> 100	> 100	> 100	> 100	–	> 100	> 100	–	–	–	–	–
N#CCCN(c1ccc(C=Nc2cccc([N+](=O)[O-])c2)cc1)S(=O)(=O)c1ccccc1	–	> 100	–	–	> 100	–	> 100	> 100	–	> 100	–	–	–	–	–	–
Cc1ccccc1C(C#N)C(=O)C(=O)Nc1nc([N+](=O)[O-])cs1 (configuration not stated)	–	–	> 100	–	> 100	–	> 100	–	> 100	> 100	–	–	–	–	–	–
CCOc1ccc(NC(=O)CC2Sc3ccccc3NC2=O)cc1 (configuration not stated)	–	–	> 100	–	76.2	–	> 100	> 100	–	> 100	–	–	–	–	–	–
